Laboratory results published in BindingDB's records for patent US12344597 (Idorsia Pharmaceuticals, 2025).

Biological target: Lysophosphatidic acid receptor 1 (Homo sapiens, UniProt Q92633)
Assay: Beta-Arrestin Recruitment Assay
Excerpt: The Tango™ EDG2-bla U2OS cells are obtained from Invitrogen. These cells contain the human LPA1 receptor cDNA linked to a TEV protease site and a Gal4-VP16 transcription factor integrated into the Tango™ GPCR-bla U2OS parental cell line. This parental cell line stably expresses a beta-arrestin/TEV protease fusion protein and the beta-lactamase (bla) reporter gene under the control of a UAS response element. Upon LPA (agonist) binding, LPA1 receptor gets activated, leading to arrestin-protease recruitment and proteolytic release of the transcription factor: The transcription factor then regulates transcription of a beta-lactamase reporter construct, which is measured upon addition of the live-cell substrate.10′000 Tango™ EDG2-bla U2OS cells are seeded in a 384-well black with clear bottom plate in 30 μl Freestyle 293 Expression Medium (Invitrogen) and incubated for 20 h at 37° C., 5% CO2. […] IC50 is the concentration of antagonist inhibiting 50% of the maximal response.

Chain of Lysophosphatidic acid receptor 1 (Q92633 whole entry): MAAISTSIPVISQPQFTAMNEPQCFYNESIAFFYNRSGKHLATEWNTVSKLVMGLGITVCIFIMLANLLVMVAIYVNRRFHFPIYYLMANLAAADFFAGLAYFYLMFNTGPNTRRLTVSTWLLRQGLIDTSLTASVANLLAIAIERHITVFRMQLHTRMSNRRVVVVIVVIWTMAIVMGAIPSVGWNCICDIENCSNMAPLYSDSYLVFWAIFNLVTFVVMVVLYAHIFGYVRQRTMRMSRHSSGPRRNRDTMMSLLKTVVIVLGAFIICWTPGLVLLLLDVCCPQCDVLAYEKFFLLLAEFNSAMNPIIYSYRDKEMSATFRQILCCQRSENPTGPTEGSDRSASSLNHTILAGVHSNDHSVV

Which IC50 does the source give for `Cc1ccc(NC(=O)C2(c3ccccc3C(C)C)CN(CCC#N)C2)c(OC(F)F)n1` [US12344597, Example 11-16] here?
The IC50 was 4 nM.
